Data reported in patent US8563714B2, “Bridged spiro [2.4] heptane derivatives as ALX receptor and/or FPRL2 agonists” (Actelion Pharmaceuticals Ltd., priority 2009, dated 2013).

How the values were obtained:
human FPRL2 = target: T1, human FPRL2 (Homo sapiens, UniProt P25089); test: Intracellular calcium measurements (FLIPR), agonistic activity in HEK293-hFPRL2-Gα16 cells; type: cell-based; settings: Fluo-4 calcium FLIPR, normalized to GLY14-Humanin 100 nM
T1 construct: expressed in transfected cells; host or cells: HEK293 (HEK293-hFPRL2-Gα16)
T1 sequence (P25089 1-353): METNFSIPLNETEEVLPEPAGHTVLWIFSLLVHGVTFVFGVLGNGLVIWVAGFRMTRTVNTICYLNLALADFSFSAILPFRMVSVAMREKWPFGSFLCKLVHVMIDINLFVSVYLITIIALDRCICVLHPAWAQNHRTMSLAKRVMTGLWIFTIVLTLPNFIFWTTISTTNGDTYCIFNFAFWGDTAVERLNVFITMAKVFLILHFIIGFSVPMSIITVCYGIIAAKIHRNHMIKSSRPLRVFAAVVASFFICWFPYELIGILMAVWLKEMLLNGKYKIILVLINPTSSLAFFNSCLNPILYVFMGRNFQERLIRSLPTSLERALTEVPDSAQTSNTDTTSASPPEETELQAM
How it was run: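 Peak values after baseline subtraction are expressed relative to 100 nM Gly14-Humanin; compounds diluted in assay buffer from 10 mM DMSO stocks.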

human ALX receptor = target: T2, human ALX receptor (Homo sapiens, UniProt P25090); test: Intracellular calcium measurements (FLIPR), agonistic activity in HEK293-hALXR-Gα16 cells; type: cell-based; settings: Fluo-4 calcium FLIPR, normalized to WKYMVm 10 nM
T2 construct: expressed in transfected cells; host or cells: HEK293 (HEK293-hALXR-Gα16)
T2 sequence (P25090 1-351): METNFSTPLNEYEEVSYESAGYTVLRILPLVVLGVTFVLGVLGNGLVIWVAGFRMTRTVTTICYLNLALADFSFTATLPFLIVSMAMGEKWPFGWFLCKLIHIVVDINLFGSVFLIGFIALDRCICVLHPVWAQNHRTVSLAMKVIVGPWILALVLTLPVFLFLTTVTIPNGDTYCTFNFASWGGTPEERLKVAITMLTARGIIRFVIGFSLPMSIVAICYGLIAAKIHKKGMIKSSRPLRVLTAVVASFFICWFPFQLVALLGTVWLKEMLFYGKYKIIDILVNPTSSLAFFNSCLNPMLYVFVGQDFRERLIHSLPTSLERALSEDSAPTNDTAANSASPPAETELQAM
How it was run: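 HEK293 cells expressing hALXR and Gα16 were loaded with 1 μM Fluo-4 AM and 20 mM HEPES for 60 min at 37°C, then exposed to serially diluted compound. FLIPR fluorescence was read at ex 488/em 540 nm. Baseline-subtracted peak responses were normalized to 10 nM WKYMVm.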

| Compound | EC50 (human FPRL2) | EC50 (human ALX receptor) |
| --- | --- | --- |
| CN(C[C@H]1[C@H](C(=O)Nc2ccc(Br)cc2)[C@@H]2C=C[C@H]1C21CC1)C(=O)Cc1ccccc1Cl (racemic) [Example 182, (5R*)—N^5-(4-Bromo-phenyl)-(6R*)-6-{[N-(2-(2-chloro-phenyl)-acetyl)-N-methyl-amino]-methyl}-(4S*,7R*)-[4,7-ethenylene-spiro[2.4]heptane]-5-carboxamide] | 2020 nM | 298 nM |
| O=C(CCc1c[nH]c2ccccc12)NC[C@H]1[C@H](C(=O)Nc2ccc(Br)cc2)[C@@H]2C=C[C@H]1C21CC1 (racemic) [Example 186, (5R*)—N^5-(4-Bromo-phenyl)-(6R*)-6-[(3-1H-indol-3-yl-propionylamino)-methyl]-(4S*,7R*)-[4,7-ethenylene-spiro[2.4]heptane]-5-carboxamide] | 8960 nM | 463 nM |
| O=C(C=Cc1ccccc1)NC[C@H]1[C@H](C(=O)Nc2ccc(Br)cc2)[C@@H]2C=C[C@H]1C21CC1 (racemic) [Example 189, (5R*)—N^5-(4-Bromo-phenyl)-(6R*)-6-[(3-phenyl-acryloylamino)-methyl]-(4S*,7R*)-[4,7-ethenylene-spiro[2.4]heptane]-5-carboxamide] | 3240 nM | 697 nM |
| CC(=O)c1csc(CNC(=O)[C@H]2[C@H](C(=O)NCCCCN3CCCC3)[C@H]3C=C[C@@H]2C32CC2)n1 (racemic) [Example 191, (5R*)—N^5-(4-Acetyl-thiazol-2-yl-methyl)-(6R*)—N^6-(4-pyrrolidin-1-yl-butyl)-(4S*,7R*)-[4,7-ethenylene-spiro[2.4]heptane]-5,6-dicarboxamide] | 826 nM | 140 nM |
| CC(=O)c1ccc(NC(=O)[C@H]2[C@H](C(=O)NCCCCN3CCCC3)[C@H]3C=C[C@@H]2C32CC2)cc1 (racemic) [Example 192, (5R*)—N^5-(4-Acetyl-phenyl)-(6R*)—N^6-(4-pyrrolidin-1-yl-butyl)-(4S*,7R*)-[4,7-ethenylene-spiro[2.4]heptane]-5,6-dicarboxamide] | 139 nM | 23 nM |
| Cc1cnc(NC(=O)[C@H]2[C@H](C(=O)NCCCCN3CCCC3)[C@H]3C=C[C@@H]2C32CC2)s1 (racemic) [Example 193, (5R*)—N^5-(5-Methyl-thiazol-2-yl)-(6R*)—N^6-(4-pyrrolidin-1-yl-butyl)-(4S*,7R*)-[4,7-ethenylene-spiro[2.4]heptane]-5,6-dicarboxamide] | 355 nM | 463 nM |
| CC(=O)c1ccc(CNC(=O)[C@H]2[C@H](C(=O)NCCCCN3CCCC3)[C@H]3C=C[C@@H]2C32CC2)s1 (racemic) [Example 194, (5R*)—N^5-(5-Acetyl-thiophen-2-yl-methyl)-(6R*)—N^6-(4-pyrrolidin-1-yl-butyl)-(4S*,7R*)-[4,7-ethenylene-spiro[2.4]heptane]-5,6-dicarboxamide] | 436 nM | 223 nM |
| O=C(NCCCCN1CCCC1)[C@H]1[C@H](C(=O)Nc2ccc(C(F)(F)F)cc2)[C@@H]2C=C[C@H]1C21CC1 (racemic) [Example 197, (5R*)—N^5-(4-Trifluoromethyl-phenyl)-(6R*)—N^6-(4-pyrrolidin-1-yl-butyl)-(4S*,7R*)-[4,7-ethenylene-spiro[2.4]heptane]-5,6-dicarboxamide] | 105 nM | 5.4 nM |
| CC(=O)c1ncc(CNC(=O)[C@H]2[C@H](C(=O)NCCCCN3CCCC3)[C@H]3C=C[C@@H]2C32CC2)o1 (racemic) [Example 198, (5R*)—N^5-(2-Acetyl-oxazol-5-yl-methyl)-(6R*)—N^6-(4-pyrrolidin-1-yl-butyl)-(4S*,7R*)-[4,7-ethenylene-spiro[2.4]heptane]-5,6-dicarboxamide] | 462 nM | 92 nM |
| O=C(NCCCCN1CCCC1)[C@H]1[C@H](C(=O)NCc2ccc(I)cc2)[C@@H]2C=C[C@H]1C21CC1 (racemic) [Example 200, (5R*)—N^5-(4-Iodophenyl-methyl)-(6R*)—N^6-(4-pyrrolidin-1-yl-butyl)-(4S*,7R*)-[4,7-ethenylene-spiro[2.4]heptane]-5,6-dicarboxamide] | 236 nM | 42 nM |
| CC(C)Cc1cc(CNC(=O)[C@H]2[C@H](C(=O)NCCCCN3CCCC3)[C@H]3C=C[C@@H]2C32CC2)no1 (racemic) [Example 201, (5R*)—N^5-(5-(iso-Butyl)-isoxazol-3-yl-methyl)-(6R*)—N^6-(4-pyrrolidin-1-yl-butyl)-(4S*,7R*)-[4,7-ethenylene-spiro[2.4]heptane]-5,6-dicarboxamide] | 1440 nM | 93 nM |
| O=C(NCCCCN1CCCC1)[C@H]1[C@H](C(=O)NCc2csc(Br)c2)[C@@H]2C=C[C@H]1C21CC1 (racemic) [Example 202, (5R*)—N^5-(2-Bromo-thiophen-4-yl-methyl)-(6R*)—N^6-(4-pyrrolidin-1-yl-butyl)-(4S*,7R*)-[4,7-ethenylene-spiro[2.4]heptane]-5,6-dicarboxamide] | 75 nM | 33 nM |
| O=C(NCCCCN1CCCC1)[C@H]1[C@H](C(=O)NCc2ccc(Br)cc2F)[C@@H]2C=C[C@H]1C21CC1 (racemic) [Example 203, (5R*)—N^5-(2-Fluoro-4-bromophenyl-methyl)-(6R*)—N^6-(4-pyrrolidin-1-yl-butyl)-(4S*,7R*)-[4,7-ethenylene-spiro[2.4]heptane]-5,6-dicarboxamide] | 200 nM | 24 nM |

Further lines, results first:

| EC50 (human FPRL2) | EC50 (human ALX receptor) | Compound |
| --- | --- | --- |
| 2050 nM | 265 nM | CN(C)CC(=O)NC[C@H]1[C@H](C(=O)Nc2ccc(Br)cc2)[C@@H]2C=C[C@H]1C21CC1 (racemic) [Example 181, (5R*)—N^5-(4-Bromo-phenyl)-(6R*)-6-[(2-(N,N-dimethyl-amino)-acetylamino)-methyl]-(4S*,7R*)-[4,7-ethenylene-spiro[2.4]heptane]-5-carboxamide] |
| 8900 nM | 303 nM | Cc1cc(C(=O)N(C)C[C@H]2[C@H](C(=O)Nc3ccc(Br)cc3)[C@@H]3C=C[C@H]2C32CC2)nn1C (racemic) [Example 183, (5R*)—N^5-(4-Bromo-phenyl)-(6R*)-6-{[N-(1,5-dimethyl-1H-pyrazole-3-carbonyl)-N-methyl-amino]-methyl}-(4S*,7R*)-[4,7-ethenylene-spiro[2.4]heptane]-5-carboxamide] |
| > 14500 nM | 315 nM | O=C(CC1CC1)NC[C@H]1[C@H](C(=O)Nc2ccc(Br)cc2)[C@@H]2C=C[C@H]1C21CC1 (racemic) [Example 184, (5R*)—N^5-(4-Bromo-phenyl)-(6R*)-6-[(2-cyclopropyl-acetylamino)-methyl]-(4S*,7R*)-[4,7-ethenylene-spiro[2.4]heptane]-5-carboxamide] |
| 709 nM | 336 nM | Cn1c(CCC(=O)NC[C@H]2[C@H](C(=O)Nc3ccc(Br)cc3)[C@@H]3C=C[C@H]2C32CC2)nc2ccccc21 (racemic) [Example 185, (5R*)—N^5-(4-Bromo-phenyl)-(6R*)-6-[(3-(1-methyl-1H-benzoimidazol-2-yl)-propionylamino)-methyl]-(4S*,7R*)-[4,7-ethenylene-spiro[2.4]heptane]-5-carboxamide] |
| 4270 nM | 505 nM | CCCC(=O)NC[C@H]1[C@H](C(=O)Nc2ccc(Br)cc2)[C@@H]2C=C[C@H]1C21CC1 (racemic) [Example 187, (5R*)—N^5-(4-Bromo-phenyl)-(6R*)-6-[(butanoylamino)-methyl]-(4S*,7R*)-[4,7-ethenylene-spiro[2.4]heptane]-5-carboxamide] |
| 1920 nM | 529 nM | O=C(CCc1ccc(F)cc1)NC[C@H]1[C@H](C(=O)Nc2ccc(Br)cc2)[C@@H]2C=C[C@H]1C21CC1 (racemic) [Example 188, (5R*)—N^5-(4-Bromo-phenyl)-(6R*)-6-[(3-(4-fluoro-phenyl)-propionylamino)-methyl]-(4S*,7R*)-[4,7-ethenylene-spiro[2.4]heptane]-5-carboxamide] |
| 1700 nM | 963 nM | Cc1nn(C)c(Cl)c1C(=O)NC[C@H]1[C@H](C(=O)Nc2ccc(Br)cc2)[C@@H]2C=C[C@H]1C21CC1 (racemic) [Example 190, (5R*)—N^5-(4-Bromo-phenyl)-(6R*)-6-{[(5-chloro-1,3-dimethyl-1H-pyrazole-4-carbonyl)-amino]-methyl}-(4S*,7R*)-[4,7-ethenylene-spiro[2.4]heptane]-5-carboxamide] |
